Reference: patent publication US20260138961A1, “MODULATORS OF MITOCHONDRIAL DNA REPLICATION” (Pretzel Therapeutics, Inc., priority 2022, published 2026)

Biological target: T1, POLγA:G848S (Homo sapiens, UniProt P54098, G848S)
T1 sequence (P54098 1-1239 G848S): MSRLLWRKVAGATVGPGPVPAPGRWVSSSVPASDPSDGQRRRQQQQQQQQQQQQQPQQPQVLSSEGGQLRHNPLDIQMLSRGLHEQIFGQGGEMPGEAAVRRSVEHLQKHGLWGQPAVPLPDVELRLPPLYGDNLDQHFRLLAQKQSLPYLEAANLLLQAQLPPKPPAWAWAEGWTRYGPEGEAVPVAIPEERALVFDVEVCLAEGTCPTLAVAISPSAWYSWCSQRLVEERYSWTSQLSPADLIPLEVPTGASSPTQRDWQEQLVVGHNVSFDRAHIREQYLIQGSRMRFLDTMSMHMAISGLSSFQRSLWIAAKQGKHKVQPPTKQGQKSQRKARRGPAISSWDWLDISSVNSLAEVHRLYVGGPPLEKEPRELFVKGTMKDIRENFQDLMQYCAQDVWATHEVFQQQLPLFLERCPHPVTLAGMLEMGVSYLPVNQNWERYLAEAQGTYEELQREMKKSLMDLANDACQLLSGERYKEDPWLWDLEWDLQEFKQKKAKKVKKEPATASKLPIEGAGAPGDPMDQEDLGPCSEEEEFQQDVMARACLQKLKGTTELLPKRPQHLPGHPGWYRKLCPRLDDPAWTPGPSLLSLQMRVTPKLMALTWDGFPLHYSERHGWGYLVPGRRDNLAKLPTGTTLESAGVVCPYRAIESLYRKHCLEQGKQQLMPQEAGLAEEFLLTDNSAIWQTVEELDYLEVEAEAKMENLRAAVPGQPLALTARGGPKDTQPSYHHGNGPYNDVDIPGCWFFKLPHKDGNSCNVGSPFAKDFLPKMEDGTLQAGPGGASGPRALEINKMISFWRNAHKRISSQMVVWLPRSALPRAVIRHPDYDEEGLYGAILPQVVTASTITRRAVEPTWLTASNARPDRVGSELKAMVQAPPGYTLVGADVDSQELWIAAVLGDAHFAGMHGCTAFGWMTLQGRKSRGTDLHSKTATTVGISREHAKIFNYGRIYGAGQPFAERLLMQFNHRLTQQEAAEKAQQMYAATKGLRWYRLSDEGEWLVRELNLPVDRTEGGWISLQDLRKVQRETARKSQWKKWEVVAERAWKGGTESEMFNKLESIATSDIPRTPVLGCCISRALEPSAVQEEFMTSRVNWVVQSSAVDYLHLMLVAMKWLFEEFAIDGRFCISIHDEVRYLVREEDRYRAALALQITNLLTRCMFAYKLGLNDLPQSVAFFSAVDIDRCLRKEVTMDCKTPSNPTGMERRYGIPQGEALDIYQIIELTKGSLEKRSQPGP
T1 sequence (Q9UHN1 1-485 partner): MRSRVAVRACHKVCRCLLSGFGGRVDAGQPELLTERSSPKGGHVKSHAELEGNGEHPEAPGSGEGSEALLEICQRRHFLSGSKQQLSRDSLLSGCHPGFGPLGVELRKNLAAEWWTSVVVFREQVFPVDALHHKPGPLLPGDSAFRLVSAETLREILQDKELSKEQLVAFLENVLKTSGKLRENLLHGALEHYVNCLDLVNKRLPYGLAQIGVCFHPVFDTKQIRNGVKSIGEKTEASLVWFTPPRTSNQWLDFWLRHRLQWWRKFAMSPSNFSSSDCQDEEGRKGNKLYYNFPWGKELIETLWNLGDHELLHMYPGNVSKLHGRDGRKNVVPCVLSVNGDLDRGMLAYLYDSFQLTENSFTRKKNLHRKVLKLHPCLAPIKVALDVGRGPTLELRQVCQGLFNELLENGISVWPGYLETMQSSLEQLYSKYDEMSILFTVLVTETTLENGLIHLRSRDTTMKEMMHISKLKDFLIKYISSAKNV
Assay: DNA polymerization assay, POLγA:G848S mutant
Format: biochemical
Settings: stimulation of polymerase activity, primed M13mp18 ssDNA, 37° C. 2 hours; read-out: G848S AC50

Structure (SMILES) | AC50 [µM]
Cc1cc(S(=O)(=O)Nc2cccc(C(=O)N(C)C(C)CO)c2)c(C)cc1Cl (single isomer, unassigned) [Example 15, 3-((4-chloro-2,5-dimethylphenyl)sulfonamido)-N-(1-hydroxypropan-2-yl)-N-methylbenzamide] | 30
Cc1csc(-c2cccc(NS(=O)(=O)c3cc(C)c(Cl)cc3C)c2)n1 [Example 20, 4-chloro-2,5-dimethyl-N-(3-(4-methylthiazol-2-yl)phenyl)benzenesulfonamide] | 2
Cc1cnc(-c2cccc(NS(=O)(=O)c3cc(C)c(Cl)cc3C)c2)s1 [Example 21, 4-chloro-2,5-dimethyl-N-(3-(5-methylthiazol-2-yl)phenyl)benzenesulfonamide] | 2
Cc1cc(S(=O)(=O)N(C)c2cccc(-c3nccs3)c2)c(C)cc1Cl [Example 22, 4-chloro-N,2,5-trimethyl-N-(3-(thiazol-2-yl)phenyl)benzenesulfonamide] | > 100
Cc1ccccc1S(=O)(=O)Nc1cccc(C(=O)N2CCOC[C@@H]2C)c1 [Example 23, (S)-2-methyl-N-(3-(3-methylmorpholine-4-carbonyl)phenyl)benzenesulfonamide] | > 100
Cc1ccc(C)c(S(=O)(=O)Nc2cccc(C(=O)N3CCSCC3)c2)c1 [Example 24, 2,5-dimethyl-N-(3-(thiomorpholine-4-carbonyl)phenyl)benzenesulfonamide] | > 100
Cc1ccc(C)c(S(=O)(=O)Nc2cccc(C(=O)N(C)C)c2)c1 [Example 25, 3-((2,5-dimethylphenyl)sulfonamido)-N,N-dimethylbenzamide] | > 100
Cc1ccc(C)c(S(=O)(=O)Nc2cccc(C(=O)N(C)Cc3ccccc3)c2)c1 [Example 26, N-benzyl-3-((2,5-dimethylphenyl)sulfonamido)-N-methylbenzamide] | 50
Cc1ccc(C)c(S(=O)(=O)Nc2cccc(C(N)=O)c2)c1 [Example 27, 3-((2,5-dimethylphenyl)sulfonamido)benzamide] | > 100
Cc1ccc(C)c(S(=O)(=O)Nc2cccc(C(=O)NCc3ccccc3)c2)c1 [Example 28, N-benzyl-3-((2,5-dimethylphenyl)sulfonamido)benzamide] | > 100
Cc1ccc(C)c(S(=O)(=O)Nc2cccc(C(=O)N3CCOCC3)c2)c1 [Example 29, 2,5-dimethyl-N-(3-(morpholine-4-carbonyl)phenyl)benzenesulfonamide] | 33
CC(=O)N1CCN(C(=O)c2cccc(NS(=O)(=O)c3cc(C)ccc3C)c2)CC1 [Example 30, N-(3-(4-acetylpiperazine-1-carbonyl)phenyl)-2,5-dimethylbenzenesulfonamide] | 22
Cc1ccc(C)c(S(=O)(=O)Nc2cccc(C(=O)N3CCN(C)CC3)c2)c1 [Example 31, 2,5-dimethyl-N-(3-(4-methylpiperazine-1-carbonyl)phenyl)benzenesulfonamide] | > 100
Cc1ccc(C)c(S(=O)(=O)Nc2cccc(C(=O)N3CCCCCC3)c2)c1 [Example 32, N-(3-(azepane-1-carbonyl)phenyl)-2,5-dimethylbenzenesulfonamide] | 35
Cc1ccc(C)c(S(=O)(=O)Nc2cccc(C(=O)N(C)CC3CC3)c2)c1 [Example 33, N-(cyclopropylmethyl)-3-((2,5-dimethylphenyl)sulfonamido)-N-methylbenzamide] | 56
COc1ccc(S(=O)(=O)Nc2cccc(C(=O)N3CCSCC3C#N)c2)cc1 (centres unmarked) [Example 34, N-(3-(3-cyanothiomorpholine-4-carbonyl)phenyl)-4-methoxybenzenesulfonamide] | 37
N#CC1CSCCN1C(=O)c1cccc(NS(=O)(=O)c2cccc(C(F)(F)F)c2)c1 (centres unmarked) [Example 35, N-(3-(3-cyanothiomorpholine-4-carbonyl)phenyl)-3-(trifluoromethyl)benzenesulfonamide] | > 100
Cc1cc(S(=O)(=O)Nc2cccc3c2CC(=O)N3)c(C)cc1Cl [Example 36, 4-chloro-2,5-dimethyl-N-(2-oxoindolin-4-yl)benzenesulfonamide] | > 100
Cc1cc2c(NS(=O)(=O)c3cc(C)c(Cl)cc3C)cccc2[nH]1 [Example 37, 4-chloro-2,5-dimethyl-N-(2-methyl-1H-indol-4-yl)benzenesulfonamide] | > 100
Cc1ccc(C)c(S(=O)(=O)Nc2cncc(C(=O)N3CCOCC3)c2)c1 [Example 38, 2,5-dimethyl-N-(5-(morpholine-4-carbonyl)pyridin-3-yl)benzenesulfonamide] | > 100
Cc1ccc(C)c(S(=O)(=O)Nc2ccc(C(=O)N[C@@H](C)C3CC3)cc2)c1 [Example 39, (S)-N-(1-cyclopropylethyl)-4-((2,5-dimethylphenyl)sulfonamido)benzamide] | > 100
Cc1ccc(C)c(S(=O)(=O)Nc2ccc(C(=O)NCC3CC3)cc2)c1 [Example 40, N-(cyclopropylmethyl)-4-((2,5-dimethylphenyl)sulfonamido)benzamide] | > 100

Results, then the compound that gave them:

AC50 [µM] | Structure (SMILES)
21 | Cc1ccc(C)c(S(=O)(=O)Nc2cccc(C(=O)N3CCSCC3C(N)=O)c2)c1 (centres unmarked) [Example 41, 4-(3-((2,5-dimethylphenyl)sulfonamido)benzoyl) thiomorpholine-3-carboxamide]
> 100 | Cc1cc(NS(=O)(=O)c2cc(C)ccc2C)cc(C(=O)N2CCCC[C@H]2C)c1 [Example 42, (R)-2,5-dimethyl-N-(3-methyl-5-(2-methylpiperidine-1-carbonyl)phenyl)benzenesulfonamide]
51 | Cc1ccc(C)c(S(=O)(=O)Nc2ccc(C(=O)N3CCCC[C@H]3C)s2)c1 [Example 43, (R)-2,5-dimethyl-N-(5-(2-methylpiperidine-1-carbonyl)thiopheN-2-yl)benzenesulfonamide]
27 | Cc1cc(S(=O)(=O)Nc2cccc(C(N)=O)c2)c(C)cc1Cl [Example 44, 3-((4-chloro-2,5-dimethylphenyl)sulfonamido)benzamide]
91 | Cc1cc(S(=O)(=O)Nc2cccc(C(=O)N3CCNCC3)c2)c(C)cc1Cl [Example 46, 4-chloro-2,5-dimethyl-N-(3-(piperazine-1-carbonyl)phenyl)benzenesulfonamide]
39 | COCCNC(=O)c1cccc(NS(=O)(=O)c2cc(C)c(Cl)cc2C)c1 [Example 47, 3-((4-chloro-2,5-dimethylphenyl)sulfonamido)-N-(2-methoxyethyl)benzamide]
13 | Cc1cc(S(=O)(=O)Nc2cccc(C(=O)N[C@H](C)c3ccccc3)c2)c(C)cc1Cl [Example 48, (R)-3-((4-chloro-2,5-dimethylphenyl)sulfonamido)-N-(1-phenylethyl)benzamide]
14 | Cc1cc(S(=O)(=O)Nc2ccc(F)c(C(=O)N3CCC[C@H]3C)c2)c(C)cc1Cl [Example 49, (R)-4-chloro-N-(4-fluoro-3-(2-methylpyrrolidine-1-carbonyl)phenyl)-2,5-dimethylbenzenesulfonamide]
11 | Cc1cc(S(=O)(=O)Nc2cc(C(=O)N3CCC[C@H]3C)ccc2F)c(C)cc1Cl [Example 50, (R)-4-chloro-N-(2-fluoro-5-(2-methylpyrrolidine-1-carbonyl)phenyl)-2,5-dimethylbenzenesulfonamide]
44 | Cc1cc(S(=O)(=O)Nc2cccc(C(=O)N[C@H](C)CO)c2)c(C)cc1Cl [Example 51, (R)-3-((4-chloro-2,5-dimethylphenyl)sulfonamido)-N-(1-hydroxypropan-2-yl)benzamide]
